Laboratory results as given in patent US4875922A, “Pyrimidine derivatives” (Imperial Chemical Industries PLC, priority 1986, dated 1989).

Columns and labels:
Rice [1] = assay: Intermediate Retardant Test, rice; format: in vivo, Rice (Ishikari); details: Oryza sativa, 672 h, overall spray, approximately 28 days, Table VI, read-out: Percentage Reduction in Height of Rice (Compared to formulation blank)
Text: (§1) Three species are involved in this test RICE, SPRING-BARLEY and APPLES. The variety and growth stages at spray are outlined in Table V. Compounds were applied at 500 ppm and 2000 ppm respectively (0.5 kg and 2 kg/ha^-1 at a field volume of 1000 l/ha^-1) as an overall spray except in the case of certain tests on APPLES. This gives a foliar and root component in the test, i.e., this test will detect the activity of both root and foliar acting compounds. The intermediate retardant test on APPLES of which the results are given in Table IX was different, in that a foliar (only) spray at 2000 ppm was compared with a root drench, also at 2000 ppm. The rice was grown in 4" `paddy` pots, i.e., the roots and bottom of the stems are immersed in water under conditions corresponding to those in paddy fields. Spring barley and apples were grown in 4" pots. The plants were assessed for height to top-most ligule at approximately 28 days after treatment for spring barley and rice and for height to apex at approximately 28 days after the treatment for apples. In each case the result for the 500 ppm and 2000 ppm test for each compound is compared to the height of the formulation blank in that test, presented as a percentage reduction in height compared to the formulation blank.
(§2) The prior art compound was compared with compounds of the present invention in side-by-side comparisons using the Intermediate Retardant Test described in Example 62, and the results are given in Tables X to XII where `A` is the prior art compound, 2-methyl-1-isopropyl-1-(pyrimidin-5-yl)-propan-1-ol).

Wheat = assay: Whole plant screen for plant growth regulator activity, wheat (WW); format: in vivo, Wheat (Timmo); details: WW, 4000 ppm (4 kg/ha), visual score after 2-6 weeks; for T = Tillering or side shooting: * = decrease in tillering
Procedure, shortened: (§3)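 Visual scoring of morphological effects after 2-6 weeks in glasshouse, compared with formulation-blank controls. Spray application was 4000 ppm, equal to 4 kg/ha at 1000 l/ha field volume, at set leaf stages. Growth at 25° C./22° C. day/night with 16 hour photoperiod; temperate cereals wheat and barley at 16° C./13° C.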

Rice [2] = assay: Whole plant screen for plant growth regulator activity, rice (RC); format: in vivo, Rice (Ishikari); details: 4000 ppm (4 kg/ha), visual score after 2-6 weeks
Procedure, shortened: as §3

Maize = assay: Whole plant screen for plant growth regulator activity, maize (MZ); format: in vivo, Maize (Earliking); details: 4000 ppm (4 kg/ha), visual score after 2-6 weeks
Experimental: Compounds 1 to 3 in Table 1 were tested for plant growth regulator activity against five species for various growth effects relevant to plant growth regulation.
The plant species used in this screen are presented in Table II with the leaf stage at which they were sprayed. Each chemical was applied at 4000 ppm (4 kg/ha in a 1000 l/ha field volume) using a tracksprayer and a SS8004E (Teejet) nozzle.
After spray the plants were grown in a glasshouse with 25° C. day/22° C. night temperatures and supplementary lighting was supplied when necessary (from mercury vapour lamps), to provide a 16 hour photoperiod. The exception to this were the temperate cereals, wheat and barley which were grown in 16° C. day/13° C. night temperatures.
After 2-6 weeks in the glasshouse, depending on the time of year, the plants were visually assessed for morphological characteristics. Formulation blanks were used as controls to assess the plants. […]

Apples = assay: Intermediate Retardant Test, apples, foliar spray compared with root drench; format: in vivo, Apples (Red Delicious); details: 672 h, approximately 28 days, Table IX, read-out: Percentage Reduction in Height of Apples (Compared to formulation blank); for percent reduction in plant height at 2000 ppm: 2000 ppm (Foliar); for percent reduction in plant height at 2000 µg/mL: soil, 2000 pmm (Root), root drench
Text: as §1, §2

Barley = assay: Whole plant screen for plant growth regulator activity, barley (BR); format: in vivo, Barley (Atem); details: BR, 4000 ppm (4 kg/ha), visual score after 2-6 weeks; for T = Tillering or side shooting: * = decrease in tillering
Procedure, shortened: as §3

Tomato = assay: Whole plant screen for plant growth regulator activity, tomato (TO); format: in vivo, Tomato (Ailsa Craig); details: 4000 ppm (4 kg/ha), visual score after 2-6 weeks
Procedure, shortened: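 Plant growth regulation scored visually 2–6 weeks post-spray, relative to formulation-blank controls, with growth at 25/22 °C day/night under 16 h light. Treatment: 4000 ppm (4 kg/ha, 1000 l/ha volume) track-sprayed onto Ailsa Craig tomato at the 2–2½ leaf stage, grown singly in 3-inch peat pots.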

Spring Barley = assay: Intermediate Retardant Test, spring barley; format: in vivo, Spring Barley (Atem/kym); details: Hordeum vulgare, 672 h, overall spray, approximately 28 days, Table VII, read-out: Percentage Reduction in Height of Spring Barley (Compared to formulation blank)
Text: as §1, §2

Apple = assay: Whole plant screen for plant growth regulator activity, apple (AP); format: in vivo, Apple (Red Delicious); details: 4000 ppm (4 kg/ha), visual score after 2-6 weeks
Procedure, shortened: as §3

SMILES | Percent reduction in rice height vs formulation blank at 500 ppm (Rice [1]) [%] | Percent reduction in rice height vs formulation blank at 2000 ppm (Rice [1]) [%] | I = Interligular or internodal length reduction (Wheat) | R = Retardation (Wheat) | T = Tillering or side shooting (Wheat) | I = Interligular or internodal length reduction (Rice [2]) | R = Retardation (Rice [2]) | percent reduction in plant height at 2000 ppm (Apples) [%] | percent reduction in plant height at 2000 µg/mL (Apples) [%] | G = Greening effect (Barley) | I = Interligular or internodal length reduction (Barley) | R = Retardation (Barley) | G = Greening effect (Tomato) | I = Interligular or internodal length reduction (Tomato) | R = Retardation (Tomato) | percent reduction in plant height at 500 ppm (Spring Barley) [%] | percent reduction in plant height at 2000 ppm (Spring Barley) [%] | T = Tillering or side shooting (Barley) | G = Greening effect (Apple) | I = Interligular or internodal length reduction (Apple) | further results
CCC(C)CCC(O)(c1cncnc1)C(C)C (centres unmarked) [Compound 6, 2-Methyl-1-(3-methylpentyl)-1-(pyrimidin-5-yl)propan-1-ol] | 26 | 50 | 3 (61-100%) | 3 (61-100%) | 1 (10-30%) | 2 (31-60%) | 2 (31-60%) | 18.8 | 72.1 | 1 (10-30%) | 3 (61-100%) | 2 (31-60%) | 2 (31-60%) | 2 (31-60%) | 2 (31-60%) | 22 | 57 | – | – | – | G = Greening effect (Maize): 1 (10-30%); I = Interligular or internodal length reduction (Maize): 2 (31-60%); R = Retardation (Maize): 2 (31-60%)
CC(C)C(O)(C#CCCCCl)c1cncnc1 (centres unmarked) [Compound 8, 2-Methyl-1-(5-chloropen-1-yne)-1-(pyrimidin-5-yl)-propan-1-ol] | 43 | 54 | 3 (61-100%) | 3 (61-100%) | 3 (61-100%) | – | – | 6 | 49.3 | 2 (31-60%) | 2 (31-60%) | 3 (61-100%) | 2 (31-60%) | 3 (61-100%) | 3 (61-100%) | 31 | 63 | 1 (10-30%) | 2 (31-60%) | 3 (61-100%) | G = Greening effect (Wheat): 2 (31-60%); G = Greening effect (Maize): 1 (10-30%); I = Interligular or internodal length reduction (Maize): 3 (61-100%); R = Retardation (Maize): 3 (61-100%); T = Tillering or side shooting (Maize; * = decrease in tillering): 1 (10-30%); R = Retardation (Apple): 3 (61-100%)
CC(C)CCCC(O)(c1cncnc1)C(C)(C)C (centres unmarked) [Compound 17, 2,2-Dimethyl-1-(4-methylpentyl)-1-(pyrimidin-5-yl)-propan-1-ol] | 7 | 10 | 3 (61-100%) | 2 (31-60%) | 2 (31-60%) | 2 (31-60%) | 2 (31-60%) | 17 | 66 | 2 (31-60%) | 3 (61-100%) | 2 (31-60%) | 1 (10-30%) | 1 (10-30%) | 1 (10-30%) | 2 | 28 | 2 (31-60%) | 1 (10-30%) | 3 (61-100%) | G = Greening effect (Wheat): 2 (31-60%); G = Greening effect (Rice [2]): 1 (10-30%); T = Tillering or side shooting (Rice [2]; * = decrease in tillering): 1 (10-30%); R = Retardation (Apple): 3 (61-100%)
CC(C)C#CC(O)(c1cncnc1)C(C)(C)C (centres unmarked) [Compound 18, 2,2-Dimethyl-1-(3-methylbut-1-yne)-1-(pyrimdin-5-yl)-propan-1-ol] | 13 | 15 | 3 (61-100%) | 2 (31-60%) | 2 (31-60%) | 3 (61-100%) | 3 (61-100%) | 0 | 69 | 2 (31-60%) | 3 (61-100%) | 2 (31-60%) | – | 3 (61-100%) | 3 (61-100%) | 17 | 55 | 3 (61-100%) | 2 (31-60%) | 3 (61-100%) | G = Greening effect (Rice [2]): 1 (10-30%); R = Retardation (Apple): 3 (61-100%)
